Reference: patent US20080176744A1 (priority 2005, published 2008)

System: Pyricularia oryzae
Assay type: cell-based
Settings: 125 ppm, microtiter plate, absorption at 405 nm on the seventh day after inoculation

With CCCCCCCCc1c(N)nc(SC)nc1CC [I-3, 6-ethyl-2-methylsulfanyl-5-octylpyrimidin-4-ylamine] the “growth (relative growth of the pathogen)” value was “inhibited completely”.
